Patent publication US6458816B1, “Modified prodrug forms of AP/AMP” (Vion Pharmaceuticals, Inc., priority 2000, dated 2002)

How the values were obtained:
[1] = tested on: M109 murine lung carinoma; experiment: Activity in the M109 Lung Carcinoma Model; assay type: in vivo, Balb/c mice; settings: for Relative Activity: CTX=Cytoxan
From the text: Twelve (12) 3-AP prodrugs have been evaluated for efficacy and toxicity using the M109 murine lung carinoma model in Balb/c mice. The procedure of the experiment is as follows: eight week aged female Balb/c mice (about 20 grams) were subcutaneously inoculated with 5×10^5/mouse of M109 murine lung carinoma cells at the right flank on day 0. The mice were then randomly grouped and each group consisted of 8-10 mice. 3-AP was used with the Triapine™ formulation while all 3-AP prodrugs were either dissolved or suspended in sterile deionized water. The body weight of mice and the tumor volume were measured twice weekly until the tumor in the control group became necrotic or at least one animal was dead in the control group.

[2] = In vivo PK of ortho phosphate bearing 3-AP prodrugs, single intravenous dose, beagle dog; settings: for V/F of 3-AP: 3-AP in dog after i.v. prodrug; for Cmax of 3-AP: equimolar doses (equivalent to 3 mg/kg of 3-AP)
Method: The pharmacokinetics of 3-AP prodrugs were characterized following administration of a single intravenous dose of 7.2-8.5 mg/kg of 3-AP phosphate prodrugs (equivalent to 3 mg/kg of 3-AP) to a beagle dog. The animal was dosed once with each prodrug weekly. After each dose, a washout period of at least 6 days was maintained before the next dose was administered. Concentrations of 3-AP (Triapine) and prodrug in serum were determined by HPLC and used to calculate various PK parameters. These PK parameters were compared to those of 3-AP from equimolar doses from a separate study. Mean serum drug concentration versus time data were analyzed by both compartmental and non-compartmental models. AUC, total body clearance (Cl), steady-state volume of distribution (Vd,ss), terminal half-life (T1/2), Cmax, Tmax were calculated for both 3-AP and the prodrugs.
Ortho-phosphate prodrug was shown previously to undergo rapid bioconversion to 3-AP when incubated in vitro with alkaline phosphatase. […] At no time have we been able to detect the presence of the intermediary phenol which is the expected cleavage product. […] The 4-chloro (16), 5-methoxy (9) and 5-fluoro (7) analogs were promising in this regard as reflected in their AUCs and half-lives.
Pharmacokinetic parameters of 3-AP itself following i.v. administration of equimolar doses of the prodrugs are presented in Table 3, below.

[3] = Solubility in aqueous solution; assay type: physicochemical
[4] = Pharmacokinetic Study in beagle dogs at 20-80 mg/kg; assay type: in vivo, beagle dogs (Canis familiaris); settings: 30 and 40 mg/kg level
Method: Drug levels were determined for the animals at the intervals which are indicated in attached FIGS. 12-15.

[5] = Rising dose pharmacokinetic and toxicokinetic study in dogs with clinical observations; assay type: in vivo; settings: dog, Triapine itself dosed at 3 mg/kg, separate study
Method: Initially, both prodrugs were studied at a single dose of 7.5-7.7 mg/kg (equivalent to 3 mg/kg of Triapine).
PK parameters of Triapine and the two prodrugs are presented in Tables 4 and 5 and are compared to those obtained, in a separate study, from administration of 3 mg/kg of Triapine (equivalent to approximately 7.5 mg/kg of prodrugs).
Serum prodrug peak concentrations and AUCs, on the other hand, were not linear with dose, and appeared to be saturated at the doses investigated. Serum concentration-time profiles of prodrugs and Triapine are presented in attached FIGS. 4 and 5. […] The sustained serum Triapine levels were presumably attributable to the high serum levels of prodrugs as well as their low total body clearance.
Treatment-related clinical observations were recorded for both dogs. […] These observations were not present on day 2. The only adverse clinical sign on day 2 was the absence of stool.
Treatment-related clinical observations were recorded for the female treated at 80 mg/kg. […] In addition, the dog was pale (pallor), diarrhea was noted, and had yellow mucous in the stool. All observations were noted on day 1 and the dog was recovered on day 2.

Human serum stability = assay type: in vitro ADME; settings: incubation in human serum
Method: Bioconversion of prodrugs to 3-AP catalyzed by alkaline phosphatase. The bioactivation of dimethyl para-prodrug and a subset of the ortho phosphate prodrugs was studied using 4.65×10^−5 unit of phosphatase enzyme solution (Type VII-SA, from Bovine Intestinal Mucose, Sigma). Upon incubation with phosphatase, all the prodrugs were converted cleanly to the parent drug 3-AP. Under these experimental conditions, there was no significant increase in the half-life (T1/2) of bioactivation of ortho phosphate prodrugs compared to that of unsubstituted ortho prodrug (Table 1, below). Human serum stability studies were conducted by incubating the prodrugs at 37° C. in human serum.

solid tumors = settings: phase 1, patients with solid tumors; cited from earlier work
M109 lung carinoma cells = experiment: Efficacy of 3-AP prodrugs on M109 Lung Carcinoma in Balb/c Mice; assay type: in vivo; settings: M109-bearing Balb/c mice
From the text: Drug treatment was started on day 5 according to the above schedule. […] The drinking water was autoclaved before use.

[6] = 60QD mpk ip, day 3-7, 10-14, 17-21
[7] = 3-AP in dog serum after i.v. prodrug, equimolar doses
[8] = 3-AP in dog serum after i.v. prodrug
[9] = prodrug in dog serum, single i.v. dose 7.2-8.5 mg/kg
[10] = prodrug in dog serum, single i.v. dose 7.2-8.5 mg/kg (equivalent to 3 mg/kg of 3-AP)
[11] = prodrug in dog, single i.v. dose 7.2-8.5 mg/kg
[12] = 5.5 (bid) mpk ip, day 3-7, 10-14
[13] = 100QD mpk ip, day 3-7, 10-14, 17-21

| Structure (SMILES) | BW Loss (%) [1, 6] [%] | Inhibition (%) [1, 6] [%] | Relative Activity [1, 6] | V/F of 3-AP ([2]; equimolar doses) [L/kg] | AUC of 3-AP [2, 7] [µg·min/L] | T1/2 of 3-AP [2, 7] [h] | Cmax of 3-AP [2, 8] [µg/mL] | AUC of prodrug [2, 9] [µg·min/L] | T1/2 of prodrug [2, 9] [h] | Cmax of prodrug [2, 10] [µg/mL] | Cl of prodrug [2, 11] [mL/min/kg] | Vss of prodrug [2, 11] [L/kg] | further results |
| --- | --- | --- | --- | --- | --- | --- | --- | --- | --- | --- | --- | --- | --- |
| NC(=S)N/N=C/c1ncccc1NC(=O)OCc1cc(Cl)cc(Cl)c1OP(=O)(O)O [3,5-Di-Cl-(12)] | 9.0 | 58 | <CTX | 3.99 | 163 | 0.9 | 2.1 | 6939 | 0.567 | 140 | 1.2 | 0.08 |  |
| NC(=S)N/N=C/c1ncccc1N [3-AP (1A)] |  |  |  |  |  |  |  |  |  |  |  |  | solubility in aqueous solution [3]: less than 0.1 mg/ml; BW Loss (%) [1, 12]: 8.09%; Inhibition (%) [1, 12]: 60%; Relative Activity [1, 12]: <CTX; half life of 3-AP itself in the dog ([2]; 3-AP itself dosed, dog serum): ~1.5 h; toxicity to the animals [4]: toxic; Cmax ([5]; Table 5): 2.3 µg/mL; AUC of Triapine [5]: 124 mg·min/L; Cmax of Triapine [5]: 2.3 µg/mL; V/F of Triapine [5]: 3.57 L/kg |
| Cc1cccc(COC(=O)Nc2cccnc2/C=N/NC(N)=S)c1OP(=O)(O)O [3-CH3-(15)] |  |  |  | 5.18 | 998 | 7.8 | 1.5 | 66756 | 5.3 | 147 | 0.11 | 0.08 | BW Loss (%) ([1]; 60QD mpk ip, day 3-7, 10-14): 7.9%; Inhibition (%) ([1]; 60QD mpk ip, day 3-7, 10-14): 64%; Relative Activity ([1]; 60QD mpk ip, day 3-7, 10-14): <CTX; Tmax of 3-AP [2, 7]: 7.8 min |
| NC(=S)N/N=C/c1ncccc1NC(=O)OCc1cc(Cl)c(Cl)cc1OP(=O)(O)O [4,5-Di-Cl-(13)] | 10.0 | 57 | <CTX | 3.14 | 392 | 1.7 | 2.7 | 21499 |  | 220 |  |  |  |
| COc1ccc(COC(=O)Nc2cccnc2/C=N/NC(N)=S)c(OP(=O)(O)O)c1 [4-CH3O (17)] |  |  |  |  |  |  |  |  |  |  |  |  | Half-life, Human Serum 37° C. (Human serum stability): 13.3 h |
| NC(=S)N/N=C/c1ncccc1NC(=O)OCc1c(OP(=O)(O)O)ccc(Cl)c1Cl [5,6-Di-Cl-(14)] | 7.0 | 59 | <CTX | 2.32 |  | 1.6 | 3.6 | 34211 |  | 202 |  |  |  |
| NC(=S)N/N=C/c1ncccc1NC(=O)OCc1cc(C(F)(F)F)ccc1OP(=O)(O)O [5-CF3-(11)] |  |  |  | 2.74 | 280 | 1.1 | 3.0 | 9579 | 0.717 | 156 | 0.86 | 0.08 | BW Loss (%) [1, 13]: 9.1%; Inhibition (%) [1, 13]: 77%; Relative Activity [1, 13]: <CTX |
| NC(=S)N/N=C/c1ccc(O)cn1 [5-HP] |  |  |  |  |  |  |  |  |  |  |  |  | activity in patients (solid tumors): inactive |
| NC(=S)N/N=C/c1ncccc1NC(=O)OCc1cc([N+](=O)[O-])ccc1OP(=O)(O)O [5-NO2-(8)] | 9.7 | 33 | <<CTX | 4.27 | 84 | 0.5 | 1.9 | 3396 | 0.317 | 126 | 2.33 | 0.12 |  |
| NC(=S)N/N=C/c1ncccc1NC(=O)OCc1ccccc1OP(=O)(O)O [Ortho- (3), reference compound] |  |  |  |  | 698 |  |  | 63309 |  |  |  |  | BW Loss (%) ([1]; 48QD mpk ip, day 5-9, 12-16): 12.6%; Inhibition (%) ([1]; 48QD mpk ip, day 5-9, 12-16): 70%; Relative Activity ([1]; 48QD mpk ip, day 5-9, 12-16): <CTX; activity versus cytoxan ([1]; M-109 solid tumor bearing mice): comparable activity to that of cytoxan; efficacy and toxicity versus parent 3-AP ([1]; M-109 solid tumor bearing mice): better efficacy with reduced toxicity than the parent 3-AP; efficacy on M109 lung carcinoma compared with the 3-AP parent drug at the MTD ([1]; mice): better efficacy; Cmax ([2]; beagle, iv, prodrug in dog serum, single i.v. dose 7.2-8.5 mg/kg (equivalent to 3 mg/kg of 3-AP)): 125 µg/mL; half-life ([2]; beagle, iv, prodrug in dog serum, single i.v. dose 7.2-8.5 mg/kg, read-out: T1/2 of prodrug (converted)): 5.9 h; clearance ([2]; beagle, serum, iv, prodrug in dog, single i.v. dose 7.2-8.5 mg/kg, read-out: Cl of prodrug): 0.11 mL/min/kg; Vd ([2]; beagle, serum, iv, prodrug in dog, single i.v. dose 7.2-8.5 mg/kg, read-out: Vss of prodrug): 0.14 L/kg; toxicity to the animals [4]: toxic; reason treatment was stopped before the end of the experiment (M109 lung carinoma cells): severe toxic reactions or mortality of the mice |
| N/C(S)=N/N=C/c1ncccc1NC(=O)OCc1ccc(OP(=O)(O)O)cc1 [Para- (2), reference compound] |  |  |  |  | 74.5 |  |  |  |  |  |  |  |  |
